Source: patent US11820745B2, “PKC-activating compounds for the treatment of neurodegenerative diseases” (Synaptogenix, Inc., priority 2008, dated 2023)
pEC50: −log10 of the molar value. Where two headings read alike, the source gives them in different places. Blank lines part the entries; values can stand above or below the compound they belong to.

Experiments:
PKCε = molecular target: T1, PKCε (Homo sapiens, UniProt Q02156); assay: Protein kinase C assay, purified/recombinant PKC epsilon (32P incorporation into histones); format: biochemical; details: for activation of purified PKCε / concentration needed to activate PKC, times lower than for BR-101 (DCP-LA): FIG. 3
T1 construct: purchased Calbiochem
T1 sequence (Q02156 1-737): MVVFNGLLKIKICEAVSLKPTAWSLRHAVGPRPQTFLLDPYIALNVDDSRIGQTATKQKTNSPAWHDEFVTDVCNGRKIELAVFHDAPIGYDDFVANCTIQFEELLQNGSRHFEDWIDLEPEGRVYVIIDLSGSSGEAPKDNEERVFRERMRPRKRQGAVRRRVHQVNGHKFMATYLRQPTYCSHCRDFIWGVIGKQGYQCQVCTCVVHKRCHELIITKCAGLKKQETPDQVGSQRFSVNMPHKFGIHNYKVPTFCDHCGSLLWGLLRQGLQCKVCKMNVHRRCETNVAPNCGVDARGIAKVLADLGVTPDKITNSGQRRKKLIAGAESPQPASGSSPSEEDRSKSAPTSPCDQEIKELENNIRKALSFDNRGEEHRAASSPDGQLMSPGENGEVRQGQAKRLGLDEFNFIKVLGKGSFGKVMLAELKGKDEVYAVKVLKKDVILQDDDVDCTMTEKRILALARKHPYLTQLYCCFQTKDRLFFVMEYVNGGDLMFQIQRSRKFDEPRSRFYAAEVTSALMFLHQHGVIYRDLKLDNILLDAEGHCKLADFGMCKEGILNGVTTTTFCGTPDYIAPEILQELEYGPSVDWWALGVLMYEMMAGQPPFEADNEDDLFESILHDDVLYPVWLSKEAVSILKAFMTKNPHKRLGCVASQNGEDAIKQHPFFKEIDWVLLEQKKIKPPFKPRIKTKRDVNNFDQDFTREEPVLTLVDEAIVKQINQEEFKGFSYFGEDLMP
Protocol: Protein kinase C assay. Recombinant PKC (1 ng of alpha or epsilon isofonn) was mixed with the BR-101 (UCP-LA) in the presence of 10 micromoiar histones, 5 mM CaCl2, 1.2 μg/μl phosphatidyl-L-serine, 0.18 μg/μl 1,2-dioctanoyl-sn-glycerol (DAG), […], […] (pH 7.4), 0.8 tnIVI EDTA, 4 mM EGTA, 4% glycerol, 8 μg/ml aprotinin, 8 μ/ml leupeptin, and 2 mM benzamidine. 0.5 micro Ci [^y32P]ATP was added. The incubation mixture was incubated for 15 min at 37 degrees in a total volume of 10 microliters. The reaction was stopped by spotting the reaction mixtures on 1×2 cm strips of cellulose phosphate paper (Whatman P81) and immediately washing twice for 1 hr in 0.5% H3PO4. The cellulose phosphate strips were counted in a scintillation counter. In some experiments, phosphatidylserine, diacylglycerol, and/or calcium were removed.
(§1) Protein kinase C assay. Rat hippocampal cells were cultured and scraped in 0.2 ml homogenization buffer (20 triM Tris-HCl, pH 7.4, 50 mM NaF, 1 μg/ml leupeptin, and 0.1 mM PMSF) and homogenized by sonication in a Marsonix micro-probe sonicator (5 see, 10W). To measure PKC, 10 ul of cell homogenate or purified. PKC isozyme (purchased from Calbiochem) was incubated for 15 min at 37° C. in the presence of 10 μM histones, 4.89 mM CaCl2, 1.2 μg/μl phosphatidyl-L-serine, 0.18 μg/μl 1,2-dioctanoyl-sn-glycerol, 10 mM MgCl2, 20 mM HEPES (pH 7.4), 0.8 mM EDTA, 4 mM EGTA, 4% glycerol, 8 μg/ml aprotinin, 8 μg/ml leupeptin, and 2 mM benzamidine. 0.5 μCi [^γ-32P]ATP was added and ^32P-phosphoprotein formation was measured by adsorption onto phosphocellulose as described previously. Nelson and Alkon, J. Neurochemistry. 1995; 65: 2350-57. For measurements of activation by BR-101 (DCP-LA) and similar compounds, PKC activity was measured in the absence of diacylglycerol and phosphatidyl serine, as described by Kanno et al., and PKC δ, ε, η, and μ were measured in the absence of added EGTA and CaCl2, as described by Kanno et al., J. Lipid Res. 2006; 47: 1146-50. Low concentrations of Ca^2+ are used because high Ca^2+ interacts with the PKC phosphatidylserine binding site and prevents activation. For measurements of bryostatin activation, 1,2-diacylglycerol was omitted unless otherwise stated.
To determine their PKC isozyme specificity, the new compounds were preincubated with purified PKC for five minutes and the PKC activity was measured radiometrically.

Aβ = Aβ levels in N2a neuroblastoma cells transfected with human APPSwe/PSID (Aβ1-42 ELISA); format: cell-based, mouse; details: 24 h incubation, various concentrations
Protocol: (§2) Cell culture. Rat hippocampal H19-71GF-IR cells (ATCC, Manassas, Va.) were plated onto poly-L-lysine coated plates and grown at 35° C. in DMEM/10% FCS for several days until about 50% coverage was obtained. The cells were then induced to differentiate into a neuronal phenotype by replacing the medium with 5 ml N2 medium containing 10 ng/ml basic fibroblast growth factor at 39° C. and grown in T-75 flasks at 37° C. Human SH-SY5Y neuroblastoma cells (ATCC) were cultured in 45% F12K/45% MEM/10% FCS. Mouse N2A neuroblastoma cells were cultured in DMEM/10% FCS without glutamine. Rat hippocampal neurons from 18-day-old embryonic
(§3) AB Measurement and Cell Viability Assay. Aβ was measured using an Aβ1-42 human fluorimetric ELISA kit (Invitrogen) according to the manufacturer's instructions. Results were measured in a Biotek Synergy HT microplate reader. AlamarBlue and CyQuant NF (Invitrogen) according to the manufacturer's instructions.
To measure the effects of PKCε activation on Aβ production, we used mouse neuro2a (N2a) neuroblastoma cells transfected with human APPSwe/PSID, which produce large quantities of Aβ. Petanceska et al., J Neurochem. 1996; 74: 1878-84. […] With bryostatin, which activates PKC by binding to the diacylglycerol-binding site, the inhibition was biphasic, with concentrations of 20 nM or higher producing no net effect. This may be explained by the ability of this class of PKC activators to downregulate PKC when used at high concentrations.

rats = details: cited from earlier work
a-secretase = details: human fibroblasts, cited from earlier work
TACE [1] = assay: TACE assay in N2a mouse neuroblastoma cells; format: cell-based; details: FIG. 9a
Protocol: (§4) TACE Assay. TACE was measured by incubating 5 μl cell homogenate, 3 μl buffer (50 mM Tris-HCl 7.4 plus 25 mM NaCl plus 4% glycerol), and 1 of 100 μM TACE substrate IV (Aβz-LAQAVRSSSR-DPa) (Calbiochem) for 20 min at 37° in 1.5-ml polypropylene centrifuge tubes (Jin et al., Anal Biochem. 2002; 302: 269-75). The reaction was stopped by cooling to 4° C. The samples were diluted to 1 ml and the fluorescence was rapidly measured (ex=320 nm, em=420 nm) in a Spex Fluorolog 2 spectrofluorometer.

[2] = tested on: Endothelin-converting enzyme (ECE); assay: ECE assay in SH-SY5Y neuroblastoma cells; format: cell-based, human; details: bryostatin 0.27 nM, BR-101 1 μM, BR-111 1 μM; FIG. 10
Protocol: ECE assay. SH-S757 neuroblastoma cells were incubated with bryostatin (0.27 nM), BR-101 (PCP-LA) (1 μM), and BR-111 (DHA-CP6) (1 μM). Endothelin-converting enzyme (ECE) was measured fluorimetrically using the method of Johnson and Ahn, Anal. Biochem. 2000; 286: 112-118. A sample of cell homogenate (20 μl) was incubated in 50 mM MES-KOH, pH 6.0, 0.01% C12E10 (polyoxyethylene-10-tauryl ether), and 15 μM McaBK2. (7-Methoxycournarin-4-acetyl [Ala7-(2,4-Dinitrophenyl)Lys9]-bradykinin trifluoroacetate salt) (Sigma-Aldrich). After 60 min at 37° C., the reaction was quenched by adding trifluoroacetic acid to 0.5%. The sample was diluted to 1.4 ml with water and the fluorescence was measured at ex=334 nm, em=398 nm.

TACE [3] = assay: TACE assay in rat primary neurons; format: cell-based; details: primary neurons from rat hippocampus; FIGS. 9b, c
Protocol: as §4

PKC [4] = assay: PKC activity time course in rat H19-7/IGF-IR hippocampal cells; format: cell-based
Protocol: as §2, §1

[5] = tested on: SH-SY5Y neuroblastoma cells; assay: Cell survival and proliferation (alamar Blue, CyQuant) in SH-SY5Y neuroblastoma cells; format: cell-based, human; details: alamar Blue; FIG. 11a
Protocol: as §3

PKC [6] = details: read-out: affinity for PKC, ECS50; cited from earlier work

effect on PKC (PKCε; FIG. 4): little or no effect
Compound: CCCCCC1CC1CC1CC1CCCCCCCCO (stereo not drawn) [BR-105, linoleic alcohol dicyclopropane]

effect on PKCε (PKCε; at concentrations above 1 μM, FIG. 4): inhibited
Compound: CCCCC[C@H]1O[C@H]1CC1CC1CCCCCCCC(=O)OC (stereo partly drawn) [BR-109, vernolic acid methyl ester cyclopropane]

concentration needed to activate PKC, times lower than for BR-101 (DCP-LA) (PKCε): approx. 100 times
Compound: CCCCCC1CC1CC1CC1CC1CC1CC1CC1CCCC(=O)OC (stereo not drawn) [BR-115]
activation of purified PKCε (PKCε): activated purified PKCε to a similar extent

Further lines, the compound ahead of its results:

Compound: CCCCCC1OC1C/C=C\CCCCCCCC(=O)OC (stereo in doubt) [BR-117, vernolic acid methyl ester]
effect on PKC (PKCε; FIG. 4): little or no effect

Compound: CCC1CC1CC1CC1CC1CC1CCCCCCCCO (stereo not drawn) [BR-104, linolenic alcohol tricyclopropane]
effect on PKC (PKCε; FIG. 4): little or no effect

Compound: CCC1CC1CC1CC1CC1CC1CC1CC1CC1CC1CCCC(=O)OC (stereo not drawn) [BR-114]
activation of purified PKCε (PKCε): activated purified PKCε to a similar extent
concentration needed to activate PKC, times lower than for BR-101 (DCP-LA) (PKCε): approx. 100 times

Compound: CCC/C=C/C=C/C(=O)O[C@H]1/C(=C/C(=O)OC)C[C@H]2C[C@H]([C@@H](C)O)OC(=O)C[C@H](O)C[C@@H]3C[C@H](OC(C)=O)C(C)(C)[C@](O)(C[C@@H]4C/C(=C/C(=O)OC)C[C@H](/C=C/C(C)(C)[C@]1(O)O2)O4)O3 [bryostatin]
levels of intracellular Aβ (Aβ; FIG. 7a): markedly reduced
levels of secreted Aβ (Aβ; FIG. 7b): markedly reduced
rate of learning (rats): dramatically increase the rate of learning
increase in initial rate of a-secretase activity (a-secretase; 10 pM): 16 fold
increase in initial rate of a-secretase activity (a-secretase; 100 pM): 132 fold
TACE activity (TACE [1]): small increases
ECE activity [2]: sustained increase
TACE activity (TACE [3]): small increases
downregulation of PKC following activation (PKC [4]; 0.04 nM and 0.2 nM): 20%
time by which PKC downregulation returned to baseline (PKC [4]; 0.04 nM and 0.2 nM): ≤ 24 h
activation of PKC (PKC [4]; 0.04 nM and 0.2 nM, data not shown): 2 fold
PKC activity (downregulation) at 8 h (PKC [4]; data not shown): at or near the baseline
effect on cell survival [5]: no effect

Compound: CCCCCCCCCCCCCC(=O)O[C@@H]1[C@@H](C)[C@@]2(O)[C@@H](C=C(CO)C[C@]3(O)C(=O)C(C)=C[C@@H]23)[C@@H]2C(C)(C)[C@]12OC(C)=O [phorbol 12-myristate 13-acetate]
PKC activity (downregulation) at 8 h (PKC [4]; data not shown): strongly downregulated

Compound: epoxystearic acid [BR-116]
effect on PKC (PKCε; FIG. 4): little or no effect
